In article PMC10138577, “Prenylated Flavonoids with Selective Toxicity against Human Cancers” (International Journal of Molecular Sciences, 2023):

Columns and labels:
Type in all cases: cell-based
[1] = system: LoVo/Dx doxorubicin-resistant human colorectal adenocarcinoma cells; experiment: In vitro antiproliferative assay (SRB), LoVo/Dx; conditions: LoVo/Dx, 72 h exposure, SRB, mean ± SD
Description: (§1) The following established in vitro cell lines were applied: human breast adenocarcinoma (MCF-7 and SK-BR-3), human breast ductal carcinoma (T47D), human prostate adenocarcinoma (PC-3), human prostate carcinoma (Du145), human colorectal adenocarcinoma (HT-29 and LoVo), doxorubicin-resistant human colorectal adenocarcinoma (LoVo/Dx), human myelomonocytic leukemia (MV-4-11), human lung adenocarcinoma (A549), normal murine embryonic fibroblasts (BALB/3T3) and human lung microvascular endothelial (HLMEC). All the cell lines were obtained from the American Type Culture Collection (Rockville, MD, USA) except for LoVo and LoVo/DX, which were received from the Technical University of Gdańsk, Poland, courtesy of Prof. E. Borowski. All the cell lines were maintained in the Institute of Immunology and Experimental Therapy, Wroclaw, Poland. The cells were cultured in the following media: DMEM medium (BALB/3T3), Eagle medium (MCF-7, SK-BR-3, Du145), RPMI medium (HLMEC, MV-4-11) or RPMI 1640 + Opti-MEM (1:1) medium (A549, T47D, LoVo, LoVo/Dx, PC-3, HT-29). The DMEM medium was supplemented with 2 mM L-glutamine and 10% fetal bovine serum. The Eagle medium was supplemented with 4 mM L-glutamine, 10% fetal bovine serum, 1 mM sodium pyruvate for Du145 cells or 2 mM L-glutamine, 1% amino acids and 0.8 mg L^−1 of insulin for MCF-7 and SK-BR-3. The RPMI medium was supplemented with 2 mM L-glutamine, 1 mM sodium pyruvate and 10% fetal bovine serum. The RPMI 1640 + Opti-MEM (1:1) medium was supplemented with 2 mM L-glutamine, 5% fetal bovine serum (PC-3, A549) and 0.8 mg L^−1 insulin (T47D) or 1 mM sodium pyruvate (HT-29, LoVo, LoVoDx) and 0.1 ug/mL doxorubicin (LoVo/Dx). The media contained antibiotics: 100 µg mL^−1 streptomycin and 100 U mL^−1 penicillin. All the cell lines were incubated at 37 °C in a humid atmosphere saturated with 5% CO2.
(§2) The details of this technique were described by Skehan et al.. After 72 h of incubation with the tested compounds, the cells were fixed in situ by gently adding cold 50% trichloroacetic acid—TCA (50 µL per well). The plates were incubated at 4 °C for 1 h and then washed five times with tap water and air-dried. Next, the cellular material fixed with TCA was stained by adding 50 µL of 0.4% sulforhodamine B dissolved in 1% acetic acid to each well and incubating the wells for 30 min at room temperature. The unbound dye was removed by washing the plates five times with 1% acetic acid, whereas the stain bound to the cells was extracted with 150 µL of 10 mM unbuffered Tris base for determination of the optical density at a 540 nm wavelength in a computer-interfaced, 96-well microtiter plate reader–Multiskan FC photometer (Thermo Scientific, Waltham, MA, USA). The background optical density was measured in the wells filled with culture medium, without the cells.
(§3) Twenty-four hours before incubation with the tested compounds, the cells were seeded in 96-well plates (Sarstedt, Nümbrecht, Germany) at a density of 10^4 cells per well (10^3 cells per well for HLMEC) in 100 µL of culture medium. The analysis of the antiproliferative activity of the compounds was performed using sulforhothamine B (SRB) (for all the adherent cells) or 3-(4,5-dimethylthiazol-2-yl)-2,5-diphenyl tetrazolium bromide (MTT) (for the leukemia cells—MV-4-11). The details of this technique have been previously described by Skehan et al. and Antoszak et al.. An assay was performed after 72 h of exposure at varying concentrations (from 0.1 to 100 µg mL^−1) of xanthohumol (1), aurone (2) and the reference drug cisplatin. Each compound at each concentration was tested in a single experiment, which was repeated at least 3 times. […] The results were calculated as the IC50 (μM) (half maximal inhibitory concentration), i.e., the concentration of the tested agent that inhibits the proliferation of the cancer cell population by half. […]

[2] = system: T47D human breast ductal carcinoma cells; experiment: In vitro antiproliferative assay (SRB), T47D; conditions: T47D, 72 h exposure, SRB, mean ± SD
Description: as §1, §2, §3

[3] = system: SK-BR-3 human breast adenocarcinoma cells; experiment: In vitro antiproliferative assay (SRB), SK-BR-3; conditions: SK-BR-3, 72 h exposure, SRB, mean ± SD
Description: as §1, §2, §3

[4] = system: A549 human lung adenocarcinoma cells; experiment: In vitro antiproliferative assay (SRB), A549; conditions: A549, 72 h exposure, SRB, mean ± SD
Description: as §1, §2, §3

[5] = system: MV-4-11 human myelomonocytic leukemia cells; experiment: In vitro antiproliferative assay (MTT), MV-4-11; conditions: MV-4-11, 72 h exposure, MTT, mean ± SD
Description: as §1
The details of this technique were described by Antoszczak et al.. The proliferation inhibition of human myelomonocytic leukemia (MV-4-11) by the tested compounds was measured using the MTT assay. Thus, 20 µL of 3-(4,5-dimethylthiazol-2-yl)-2,5-diphenyl tetrazolium bromide solution was added to each well. Then, the plates were incubated for 4 h in a cell incubator to allow the cells to metabolize the yellow MTT to blue formazan. Next, 80 µL of lysing mixture (consisting of 67.5 g sodium dodecyl sulfate, 225 mL dimethylformamide and 275 mL distilled water) was added to each well. The plates were incubated for 24 h for the formazan crystals to be released from the cells and dissolved, and then the absorbance of each well was read on a 96-well microtiter plate reader (Multiskan FC photometer (Thermo Scientific)) at a 570 nm wavelength.
Twenty-four hours before incubation with the tested compounds, the cells were seeded in 96-well plates (Sarstedt, Nümbrecht, Germany) at a density of 10^4 cells per well (10^3 cells per well for HLMEC) in 100 µL of culture medium. The analysis of the antiproliferative activity of the compounds was performed using sulforhothamine B (SRB) (for all the adherent cells) or 3-(4,5-dimethylthiazol-2-yl)-2,5-diphenyl tetrazolium bromide (MTT) (for the leukemia cells—MV-4-11). The details of this technique have been previously described by Skehan et al. and Antoszak et al.. An assay was performed after 72 h of exposure at varying concentrations (from 0.1 to 100 µg mL^−1) of xanthohumol (1), aurone (2) and the reference drug cisplatin. Each compound at each concentration was tested in a single experiment, which was repeated at least 3 times. […] The results were calculated as the IC50 (μM) (half maximal inhibitory concentration), i.e., the concentration of the tested agent that inhibits the proliferation of the cancer cell population by half. The IC50 values and the mean values ± SD calculated for each experiment separately using GraphPad Prism software (GraphPad Software 9.1.0, San Diego, CA, USA) are presented in Table S1 in the Supplementary Materials.

[6] = system: HT-29 human colorectal adenocarcinoma cells; experiment: In vitro antiproliferative assay (SRB), HT-29; conditions: HT-29, 72 h exposure, SRB, mean ± SD
Description: as §1, §2, §3

[7] = system: normal murine embryonic fibroblasts (BALB/3T3); experiment: In vitro cytotoxicity against normal cells (SRB), BALB/3T3; conditions: BALB3T3 normal cell line, 72 h exposure, SRB, mean ± SD; read-out: Antiproliferative activity IC50
Description: as §1
(§4) The details of this technique were described by Skehan et al.. […] The unbound dye was removed by washing the plates five times with 1% acetic acid, whereas the stain bound to the cells was extracted with 150 µL of 10 mM unbuffered Tris base for determination of the optical density at a 540 nm wavelength in a computer-interfaced, 96-well microtiter plate reader–Multiskan FC photometer (Thermo Scientific, Waltham, MA, USA). The background optical density was measured in the wells filled with culture medium, without the cells.
(§5) Twenty-four hours before incubation with the tested compounds, the cells were seeded in 96-well plates (Sarstedt, Nümbrecht, Germany) at a density of 10^4 cells per well (10^3 cells per well for HLMEC) in 100 µL of culture medium. […] The results were calculated as the IC50 (μM) (half maximal inhibitory concentration), i.e., the concentration of the tested agent that inhibits the proliferation of the cancer cell population by half. […]

[8] = system: PC-3 human prostate adenocarcinoma cells; experiment: In vitro antiproliferative assay (SRB), PC-3; conditions: PC-3, 72 h exposure, SRB, mean ± SD
Description: as §1, §2, §3

[9] = system: human lung microvascular endothelial (HLMEC) cells; experiment: In vitro cytotoxicity against normal cells (SRB), HLMEC; conditions: HLMEC normal cell line, 72 h exposure, SRB, mean ± SD; read-out: Antiproliferative activity IC50
Description: as §1, §4, §5

[10] = system: Du145 human prostate carcinoma cells; experiment: In vitro antiproliferative assay (SRB), Du145; conditions: Du145, 72 h exposure, SRB, mean ± SD
Description: as §1, §2, §3

[11] = system: MCF-7 human breast adenocarcinoma cells; experiment: In vitro antiproliferative assay (SRB), MCF-7; conditions: MCF-7, 72 h exposure, SRB, mean ± SD
Description: as §1, §2, §3

[12] = system: LoVo human colorectal adenocarcinoma cells; experiment: In vitro antiproliferative assay (SRB), LoVo; conditions: LoVo, 72 h exposure, SRB, mean ± SD
Description: as §1, §2, §3

## N.N.[Cl][Pt][Cl] [Cisplatin, cisplatin, reference compound]
[1]
  IC50: 8.97 ± 1.45 µM
[2]
  IC50: 13.1 ± 5.58 µM
[3]
  IC50: 21.6 ± 3.93 µM
[4]
  IC50: 11.3 ± 1.36 µM
[5]
  IC50: 1.11 ± 0.36 µM
[6]
  IC50: 18.9 ± 2.25 µM
[7]
  IC50: 8.96 ± 2.15 µM
[8]
  IC50: 15.3 ± 2.28 µM
[9]
  IC50: 1.26 ± 0.1 µM
[10]
  IC50: 9.36 ± 0.63 µM
[11]
  IC50: 11.3 ± 0.99 µM
[12]
  IC50: 4.32 ± 0.9 µM
